In patent EP0035868A1, “Bicyclic compounds, their production and use” (Takeda Chemical Industries, Ltd., priority 1980, dated 1981):

Experiments:
[1] = test system: Hypertensive Activity of Angiotensin I; test: Effect against hypertensive activity of angiotensin I in rats, oral administration; format: in vivo, Male rats (Sprague-Dawley); conditions: 13.8 µM/kg orally, angiotensin I 300 ng/kg i.v., corrected by angiotensin II reaction
Method: Male rats (Sprague-Dawley) weighing 250 g to 350 g which were fed under free access to drinking water and feeds were used as experimental animals. The rats were anesthetized with intraperitoneal administration of pentobarbital sodium (50 mg/kg) on the day before the test day and a polyethylene tube was inserted into each of the femoral artery for measurement of blood pressure and the femoral vein for injection of angiotensin I and II, and then the tubes were fixed.
On the test day, an average blood pressure in the control phase was recorded on an electric hemodynamometer (MP-4T model manufactured by Nippon Koden, Japan) and thereafter angiotensin I and then angiotensin II were injected through the femoral vein at a dose of 300 ng/kg and 100 ng/kg respectively, to measure the hypertensive activity. Then, 13.8 µM/kg of the compound of this invention was administered orally as an aqueous solution or an aqueous gum arabic suspension, and 20, 60 and 120 minutes after the administration, angiotensin I and II were injected repeatedly to trace hypertensive reactions. In calculating the percent inhibition to the hypertensive acitivity of angiotensin I, the-percent inhibitory value was corrected based on the variation with time in the hypertensive reaction by angiotensin II.

[2] = target: T1, ACE (angiotensin I converting enzyme) (Oryctolagus cuniculus, UniProt P12822); test: Inhibition of angiotensin I converting enzyme (HHL substrate, modified Cushman method); format: biochemical; conditions: 37°C, one hour, read-out: Inhibitory Activity on ACE (%); for inhibition at 1 µM: Concentration 1 μM; for inhibition at 10 µM: Concentration 10 μM
T1 sequence (P12822 34-1310): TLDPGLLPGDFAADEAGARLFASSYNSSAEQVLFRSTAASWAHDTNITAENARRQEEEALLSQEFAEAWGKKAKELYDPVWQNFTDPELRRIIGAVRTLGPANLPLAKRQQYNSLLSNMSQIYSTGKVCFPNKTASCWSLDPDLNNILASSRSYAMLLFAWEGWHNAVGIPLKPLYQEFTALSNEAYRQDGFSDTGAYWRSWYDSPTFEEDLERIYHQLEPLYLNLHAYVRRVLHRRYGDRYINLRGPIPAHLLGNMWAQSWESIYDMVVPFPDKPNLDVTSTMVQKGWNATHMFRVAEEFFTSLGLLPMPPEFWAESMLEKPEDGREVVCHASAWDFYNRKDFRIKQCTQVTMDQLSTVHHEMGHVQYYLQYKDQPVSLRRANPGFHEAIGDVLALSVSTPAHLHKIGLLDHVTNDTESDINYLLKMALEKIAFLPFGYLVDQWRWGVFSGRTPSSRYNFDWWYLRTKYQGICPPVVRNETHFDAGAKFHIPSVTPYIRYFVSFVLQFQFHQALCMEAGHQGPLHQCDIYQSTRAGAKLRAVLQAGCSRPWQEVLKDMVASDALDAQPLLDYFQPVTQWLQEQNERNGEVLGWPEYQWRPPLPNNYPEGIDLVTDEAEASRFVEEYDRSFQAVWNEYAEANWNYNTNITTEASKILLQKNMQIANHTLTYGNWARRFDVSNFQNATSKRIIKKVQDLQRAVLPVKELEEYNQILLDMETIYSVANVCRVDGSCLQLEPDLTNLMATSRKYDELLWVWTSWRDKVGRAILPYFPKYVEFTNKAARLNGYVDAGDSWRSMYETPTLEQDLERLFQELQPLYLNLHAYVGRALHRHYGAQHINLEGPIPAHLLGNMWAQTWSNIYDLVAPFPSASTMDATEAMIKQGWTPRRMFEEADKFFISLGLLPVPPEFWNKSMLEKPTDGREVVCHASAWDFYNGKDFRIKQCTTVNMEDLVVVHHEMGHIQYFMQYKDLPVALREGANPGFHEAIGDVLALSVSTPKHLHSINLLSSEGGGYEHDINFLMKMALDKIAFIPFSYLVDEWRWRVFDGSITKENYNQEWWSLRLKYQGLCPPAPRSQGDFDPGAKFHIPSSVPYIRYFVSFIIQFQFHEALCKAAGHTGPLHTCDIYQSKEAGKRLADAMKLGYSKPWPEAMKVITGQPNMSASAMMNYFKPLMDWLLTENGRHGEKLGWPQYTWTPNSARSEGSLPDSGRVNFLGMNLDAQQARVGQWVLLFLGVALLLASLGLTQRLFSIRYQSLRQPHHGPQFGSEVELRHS
Method: The experiment was conducted in accordance with a modification of the method described by Cushman et al. [Biochemical Pharmacology, Vol. 20, pl637(1971)].
That is, using hippuryl-L-histidyl-L-leucine(HHL) as the substrate, the ACE (angiotensin I converting enzyme) inhibitory activity was determined in terms of percent inhibition on the amount of hippuric acid produced by ACE when the present compound was added. A solution of the compound of the present invention dissolved in a 0.02 to 2% dimethyl sulfoxide-500 mM potassium phosphate buffer solution (pH 8.3, containing 300 mM sodium chloride) was added to 100 µl of ACE (protein concentration, 20 mg/ml) and 100 µl of 1.25 mM HHL. In this experiment, a potassium phosphate buffer solution containing dimethyl sulfoxide at a concentration equal to that of the test solution was used as a control. After incubating the solution at 37°C for one hour, 150 µl of 1N hydrochloric acid was added to the solution to terminate the reaction. After 1 ml of ethyl acetate was added, the solution was centrifuged at 3000 r.p.m. for 10 minutes. A 0.5 ml aliquot was separated from the ethyl acetate layer and dried at a temperature below 50°C under nitrogen gas streams. The residue was mixed with 5 ml of 1M aqueous sodium chloride and the mixture was subjected to colorimetry at a wavelength of 228 nm.

Row | Structure (SMILES) | Percent Inhibition (%) against Hypertensive Reaction by Angiotensin I ([1]; After 20 min.) | Percent Inhibition (%) against Hypertensive Reaction by Angiotensin I ([1]; After 60 min.) | Percent Inhibition (%) against Hypertensive Reaction by Angiotensin I ([1]; After 120 min.) | inhibition at 1 µM [2] | inhibition at 10 µM [2]
1 | COc1ccc2c(c1)C(N(CC(=O)O)C(=O)C(C)CSC(C)=O)CC2 (stereo not drawn) [Example 1, N-(3-acetylthio-2-methylpropionyl)-N-(6-methoxy-l-indanyl)-glycine] | 96% | 94% | 91% |  | 
2 | CC(=O)SCC(C)C(=O)N(CC(=O)O)C1CCc2ccccc21 (centres unmarked) [Example 3] | 95% | 90% | 83% |  | 
3 | CC(=O)SCC(C)C(=O)N(CC(=O)O)C1CCc2cc(O)ccc21 (centres unmarked) [Example 6] |  |  |  | 45% | 88%
4 | COc1cc2c(cc1OC)C(N(CC(=O)O)C(=O)C(C)CSC(C)=O)CC2 (centres unmarked) [Example 8, N-(3-Acetylthio-2-methylpropionyl)-N-(5,6-dimethoxy-1-indanyl)glycine] | 86% | 94% | 91% |  | 
5 | CC(=O)SCC(C)C(=O)N(CC(=O)O)C1CCc2cc3c(cc21)OCO3 (centres unmarked) [Example 9, N-(3-acetylthio-2-methylpropionyl)-N-(5,6-methylenedioxy-I-indanyl)glycine] | 81% | 78% | 59% |  | 
6 | COc1ccc2c(c1OC)CCCC2N(CC(=O)O)C(=O)C(C)CSC(C)=O (centres unmarked) [Example 18] | 83% | 70% | 72% |  | 
7 | CC(=O)SCC(C)C(=O)N(CC(=O)O)C1CCOc2ccc(Cl)cc21 (centres unmarked) [Example 21] |  |  |  | 19% | 66%
8 | CC(=O)SCC(C)C(=O)N(CC(=O)O)C1CCc2ccccc2C1 (centres unmarked) [Example 32, N-(3-acetylthio-2-methylpropionyl)-N-(1,2,3,4-tetrahydro-2-naphthyl)glycine] |  |  |  | 73% | 95%
9 | CC(=O)SCC(C)C(=O)N(CC(=O)O)C1Cc2ccccc2C1 (centres unmarked) [Example 35, N-(3-acetylthio-2-methylpropionyl)-N-(2-indanyl)glycine] | 100% | 100% | 91% |  | 
10 | C[C@H](CSC(=O)c1ccccc1)C(=O)N(CC(=O)O)C1Cc2ccccc2C1 [Example 38, N-(3-benzoylthio-2(S)-methylpropionyl)-N-(2-indanyl)glycine] |  |  |  | 86% | 98%
11 | CC(=O)SCCC(=O)N(CC(=O)O)C1Cc2ccccc2C1 [Example 40, N-(3-acetylthiopropionyl)-N-(2-indanyl) glycine] |  |  |  | 77% | 92%
12 | COc1cc2c(cc1OC)CC(N(CC(=O)O)C(=O)C(C)CSC(C)=O)C2 (centres unmarked) [Example 41, N-(3-acetylthio-2-methylpropionyl)-N-(5,6-dimethoxy-2-indanyl)glycine] | 89% | 93% | 92% |  | 
13 | COc1cc2c(cc1OC)C(N(CC(=O)O)C(=O)C(CSC(C)=O)CSC(C)=O)CC2 (centres unmarked) [Example 43, N-(3-acetylthio-2-acetylthiomethylpropionyl)-N-(5,6-dimethoxy-1-indanyl)glycine] |  |  |  | 32% | 75%
14 | COc1cc2c(cc1OC)C(N(CC(=O)O)C(=O)C(C)CS)CC2 (stereo not drawn) [Example 45, N-(3-mercapto-2-methylpropionyl)-N-(5,6-dimethoxy-l-indanyl)glycine] |  |  |  | 74% | 99%
